Read-outs that look alike come from different tables or passages of the source. Marks after values point to notes of the source that are not given here.

The source of these data is patent US20230321199A1, “USES OF PTHrP ANALOGUE IN REDUCING FRACTURE RISK” (Radius Health, Inc., priority 2015, published 2023).

The test system of data set [1] is postmenopausal women with osteoporosis. The data set is described as follows: ACTIVE trial: adverse events. As to conditions: 18-month ACTIVE trial.
Experimental: (§2) Safety evaluations performed in the ACTIVE trial included physical examinations, vital signs, 12-lead electrocardiograms, or ECGs, clinical laboratory tests and monitoring, and recording of adverse events. Specific safety assessments included pre-dose and post-dose (four hours) determination of serum calcium, determination of creatinine clearance, post-dose ECG assessments at selected visits, and assessments of postural hypotension (60 minutes post-dose) at selected clinic visits.
(§3) The ACTIVE trial also evaluated several potential safety measures, including blood calcium levels, orthostatic hypotension, nausea, dizziness, and injection-site reactions.
Data set [2] shares this test system. As to conditions: in vivo.
Experimental: as §2, §3
Data set [3] shares this test system. Conditions: in vivo. This is another data set of the same source.
The test system is the same in data set [4]. Description: Phase 2 trial 24-week extension (48 weeks): BMD and tolerability. Conditions: 20 μg daily SC.
Data set [5] has the same test system. Description: ACTIVE trial: BMD of lumbar spine, total hip, femoral neck by DXA. Type of data set: in vivo, human. The procedure:
BMD and bone turnover biomarkers (CTX and P1NP) were also evaluated in all patient groups to compare the effects of abaloparatide versus teriparatide.
(§1) As set forth in the ACTIVE protocol, the primary efficacy endpoint was the number of patients treated with abaloparatide with incident vertebral fractures at the end of treatment as compared to those who received placebo. The pre-specified secondary efficacy parameters included, among other endpoints, reduction in the incidence/risk of non-vertebral fractures; changes in BMD of the spine, hip, and femoral neck from baseline to end of treatment as assessed by DXA and as compared to teriparatide; and the number of hypercalcemic events in abaloparatide treated patients when compared to teriparatide at end of treatment.
Comparative analyses of abaloparatide versus teriparatide were completed on the following BMD secondary endpoints using a Mixed-Effect Model for Repeated Measures (MMRM) method, shown in Table 4 below:
Comparative analyses of the PTHrP analogues abaloparatide and teriparatide were completed on the following BMD secondary endpoints using an ANCOVA approach, shown in Table 5 below: […]

The test system is the same in data set [6]. Description: Phase 2 trial: safety, serum calcium, antibody formation. Conditions: 24 weeks; 20 μg daily SC.
Data set [7] shares this test system. The data set is described as follows: ACTIVE phase 3 trial: fracture rates and fracture risk over 18 months. Type of data set: in vivo, human. The procedure: The ACTIVE phase 3 fracture prevention trial was conducted for abaloparatide in postmenopausal women with osteoporosis who were otherwise healthy. The enrolled subjects were treated with 80 micrograms (μg) of abaloparatide, a matching placebo, or the approved daily dose of 20 μg of teriparatide for 18 months. The ACTIVE trial evaluated fracture rates, fracture risks, BMD, and bone turnover biomarkers (e.g., CTX and P1NP) in all patient groups.
Fracture risk reduction and hazard ratio (HR) were derived from Kaplan-Meier (KM) curve.
The ACTIVE pivotal Phase 3 fracture prevention trial for the PTHrP analogue abaloparatide, Study BA058-05-003 (see ClinicalTrials.gov), was a randomized, double-blind, placebo-controlled trial in postmenopausal osteoporotic women randomized to receive daily doses of one of the following for 18 months: 80 micrograms (μg) of abaloparatide; a matching placebo; or the approved daily dose of 20 μg of teriparatide. Treatment with abaloparatide at a daily dose of 80 μg or placebo remained blinded to all parties throughout the study. Teriparatide used was a proprietary prefilled drug and device combination that could not be repackaged. Therefore, its identity could not be blinded to treating physicians and patients once use began. Study medication was self-administered daily by subcutaneous injection for a maximum of 18 months. All enrolled patients also received calcium and vitamin D supplementation from the time of enrollment until the end of the treatment period. It was recommended to patients that they also continue these supplements through the one-month follow-up period.
The study enrolled otherwise healthy ambulatory women aged 49 to 86 (inclusive) who had been postmenopausal for at least five years, met the study entry criteria, and had provided written informed consent. […] All patients were to be in good general health as determined by medical history, physical examination (including vital signs), and clinical laboratory testing. This study population contained a patient population reflective of the type of severe osteoporosis patients that specialists would be expected to treat in their practices.
as §1

Data set [8] has the same test system. The data set is described as follows: Phase 2 dose-finding trial: 24-week BMD by DXA. Conditions: 24 weeks; 20 μg daily SC. The data set is classed as in vivo, human. From the text:
Healthy postmenopausal women between the ages of 55 to 85 (based on a 5-year history of amenorrhea and an elevated serum level of FSH) were enrolled in the study if they met one of the following the following definitions of osteoporosis: • 1) DXA-derived BMD T-score≤−2.5 at the lumbar spine or femoral neck or total hip. • 2) DXA-derived BMD T-score ≤−2.0 with a history of a prior low trauma forearm, humerus, vertebral, sacral, pelvic, hip, femoral, or tibial fracture within the past five years. • 3) DXA-derived BMD T-score ≤−2.0 with an additional osteoporosis risk factor such as age >65 years or strong maternal history of osteoporosis (defined as a fracture related to osteoporosis or osteoporosis itself determined by BMD criteria).
Dual X-ray absorptiometry: DXA scans were obtained at each local site and then sent to a central imaging reader (BioClinica Inc. Newton, PA) where they underwent a quality control review and then analyzed according to each manufacturers guidelines. Scans performed during the treatment period on the same instrument used for the baseline scan were acquired. Each study site performed Instrument Quality Control over time (instrument standardization and phantom calibration) that was reviewed by the central reader.

`CC[C@H](C)[C@H](NC(=O)[C@H](CO)NC(=O)[C@H](CCCCN)NC(=O)CNC(=O)[C@H](CCCCN)NC(=O)[C@H](CC(=O)O)NC(=O)[C@H](Cc1cnc[nH]1)NC(=O)[C@H](CC(C)C)NC(=O)[C@H](CC(C)C)NC(=O)[C@H](CCC(N)=O)NC(=O)[C@H](Cc1cnc[nH]1)NC(=O)[C@H](CCC(=O)O)NC(=O)[C@H](CO)NC(=O)[C@@H](NC(=O)[C@H](C)N)C(C)C)C(=O)N[C@@H](CCC(N)=O)C(=O)N[C@@H](CC(=O)O)C(=O)N[C@@H](CC(C)C)C(=O)N[C@@H](CCCNC(=N)N)C(=O)N[C@@H](CCCNC(=N)N)C(=O)N[C@@H](CCCNC(=N)N)C(=O)N[C@@H](CCC(=O)O)C(=O)N[C@@H](CC(C)C)C(=O)N[C@@H](CC(C)C)C(=O)N[C@@H](CCC(=O)O)C(=O)N[C@@H](CCCCN)C(=O)N[C@@H](CC(C)C)C(=O)N[C@@H](CC(C)C)C(=O)NC(C)(C)C(=O)N[C@@H](CCCCN)C(=O)N[C@@H](CC(C)C)C(=O)N[C@@H](Cc1cnc[nH]1)C(=O)N[C@H](C(=O)N[C@@H](C)C(N)=O)[C@@H](C)O` [abaloparatide, [Glu^22,25, Leu^23,28,31, Aib^29, Lys^26,30]hpTHrP(1-34)NH2]: the “AE: Influenza” value in data set [1] came out at 6.3%. In data set [2], the “AE: Arthralgia” value is on record as 8.6%, the “AE: Back Pain” value is on record as 8.5%, the “AE: Constipation” value stood at 4.5% and the “AE: Dizziness” value was found to be 10.0%‡. In data set [2], the “AE: Headache” value turned out to be 7.5%, the “AE: Hypercalcemia (serum albumin-corrected calcium value ≥ 10.7 mg/dL)” value is recorded as 3.41%^†, the “AE: Hypertension” value was determined as 7.2% and the “AE: Nasopharyngitis” value turned out to be 5.8%. Also, in data set [2], the “AE: Nausea” value amounted to 8.3%‡, the “AE: Pain in extremity” value was found to be 4.9%, the “AE: Palpitations” value was 5.1%‡ and the “AE: Upper respiratory tract infection” value came out at 8.3%. Further, in data set [2], the “AE: Urinary tract infection” value turned out to be 5.2%. For the same molecule, the “anti-abaloparatide antibody titer in positive patients” value in data set [3] is ≤ 1:20.

For `CC[C@H](C)[C@H](NC(=O)[C@H](CCC(=O)O)NC(=O)[C@H](CO)NC(=O)[C@@H](NC(=O)[C@@H](N)CO)C(C)C)C(=O)N[C@@H](CCC(N)=O)C(=O)N[C@@H](CC(C)C)C(=O)N[C@@H](CCSC)C(=O)N[C@@H](Cc1cnc[nH]1)C(=O)N[C@@H](CC(N)=O)C(=O)N[C@@H](CC(C)C)C(=O)NCC(=O)N[C@@H](CCCCN)C(=O)N[C@@H](Cc1cnc[nH]1)C(=O)N[C@@H](CC(C)C)C(=O)N[C@@H](CC(N)=O)C(=O)N[C@@H](CO)C(=O)N[C@@H](CCSC)C(=O)N[C@@H](CCC(=O)O)C(=O)N[C@@H](CCCN=C(N)N)C(=O)N[C@H](C(=O)N[C@@H](CCC(=O)O)C(=O)N[C@@H](Cc1c[nH]c2ccccc12)C(=O)N[C@@H](CC(C)C)C(=O)N[C@@H](CCCN=C(N)N)C(=O)N[C@@H](CCCCN)C(=O)N[C@@H](CCCCN)C(=O)N[C@@H](CC(C)C)C(=O)N[C@@H](CCC(N)=O)C(=O)N[C@@H](CC(=O)O)C(=O)N[C@H](C(=O)N[C@@H](Cc1cnc[nH]1)C(=O)N[C@@H](CC(N)=O)C(=O)N[C@@H](Cc1ccccc1)C(=O)O)C(C)C)C(C)C` [teriparatide, hPTH(1-34)], in data set [4] (48 weeks), the “femoral neck BMD increase” value is listed as 2.2%, the “lumbar spine BMD increase” value came to 8.6% and the “total hip BMD increase” value worked out at 1.3%. Besides, the “treatment-related TEAEs” value in data set [4] (extension study) is 21%. For the same molecule, in data set [5] (6 mo), the “Mean Percent Change In BMD From Baseline (ANCOVA), Femoral Neck” value worked out at 0.80%* and the “Mean Percent Change in BMD From Baseline (MMRM), Femoral Neck” value was 0.87%*. For the same molecule, the “Mean Percent Change In BMD From Baseline (ANCOVA), Lumbar Spine” value in data set [5] (12 mo) is given as 7.40%*. In addition, the “subjects with BMD increases of >3% at all three sites” value in data set [5] (12 months) came out at 19.8%. In data set [5] (18 months), the “subjects with BMD increases of >3% at all three sites” value is 32.0%. In addition, the “subjects with increased BMD of >3% at all three sites (lumbar spine, total hip, femoral neck)” value in data set [5] (month 6) is listed as 6.5%. In addition, in data set [1], the “AE: Arthralgia” value is 8.6%, the “AE: Back Pain” value was found to be 7.2%‡, the “AE: Constipation” value is reported as 4.2% and the “AE: Dizziness” value was determined as 7.3%. In data set [1], the “AE: Headache” value is reported as 6.2%, the “AE: Hypercalciuria” value is reported as 12.5%‡, the “AE: Hypertension” value turned out to be 5.0% and the “AE: Influenza” value came to 4.2%. Moreover, in data set [1], the “AE: Nasopharyngitis” value turned out to be 6.5%, the “AE: Nausea” value stood at 5.1%‡, the “AE: Pain in extremity” value amounted to 5.1% and the “AE: Palpitations” value is on record as 1.6%‡. Further, in data set [1], the “AE: Upper respiratory tract infection” value came to 8.9% and the “AE: Urinary tract infection” value turned out to be 5.0%. For the same molecule, the incidence of dizziness in data set [6] came out at 4%. Also, in data set [7], the “hazard ratio, incident clinical fractures, as compared to placebo” value is recorded as 0.71 and the “hazard ratio, non-vertebral fractures, as compared to placebo” value was 0.72. For the same molecule, the “fracture rate, non-vertebral fractures (rate given with hazard ratio)” value in data set [7] (placebo group 4.7%) is given as 3.3%. Also, in data set [7] (placebo group 8.3%), the “fracture rate, incident clinical fractures (rate given with hazard ratio)” value stood at 4.8%. For the same molecule, in data set [8], the “femoral neck BMD increase (±SD)” value was found to be 1.1±4.6% and the “total hip BMD increase (±SD)” value worked out at 0.5±3.9%.
